Literature values, collected in paper PMC8823334 (ACS chemical neuroscience, 2021).

Assays:
PAR4 [1] = molecular target: T1, PAR4 (Homo sapiens, UniProt Q96RI0)
T1 sequence (Q96RI0 18-385): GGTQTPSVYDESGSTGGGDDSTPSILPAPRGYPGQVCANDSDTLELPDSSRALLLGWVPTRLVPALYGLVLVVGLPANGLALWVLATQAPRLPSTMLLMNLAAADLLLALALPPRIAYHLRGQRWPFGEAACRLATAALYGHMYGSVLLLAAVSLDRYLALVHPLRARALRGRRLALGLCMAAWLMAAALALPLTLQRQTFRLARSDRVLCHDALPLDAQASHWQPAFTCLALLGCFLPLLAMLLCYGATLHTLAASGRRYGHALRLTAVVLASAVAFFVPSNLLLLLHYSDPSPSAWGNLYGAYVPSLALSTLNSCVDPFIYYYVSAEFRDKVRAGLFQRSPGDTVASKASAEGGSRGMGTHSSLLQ

PAR4 [2] = details: mice, suppression of neuroinflammation in astrocytes

## COc1cc(OCc2nc(N3CCOCC3)sc2C)c2cc(-c3cn4nc(OC)sc4n3)oc2c1 [Compound 1]
PAR4 [1]
  mode of PAR4 inhibition: noncompetitive mode of inhibition
PAR4 [2]
  protection against traumatic brain injury: protected against traumatic brain injury (TBI) in mice
